Experimental data: publication PMC11311998, “AR71, Histamine H3 Receptor Ligand—In Vitro and In Vivo Evaluation (Anti-Inflammatory Activity, Metabolic Stability, Toxicity, and Analgesic Action)” (International Journal of Molecular Sciences, 2024)
pKi: −log10 of the molar value.

Legend:
human H3R = target: human H3R; design: method as in PMID 36370200; settings: cited from earlier work
CCI-exposed mice [1] = test: tail flick test in CCI neuropathic pain model; type: in vivo, mouse; settings: 20 mg/kg i.p.
Procedure: (§1) The effects of a single intraperitoneal (i.p.) injection of AR71 at doses of 5, 10, and 20 mg/kg on mechanical (von Frey test) and thermal (cold plate and tail flick tests) stimulus were evaluated on day 14 following sciatic nerve injury (Figure 15). There were seven to eight animals per group. All these tests were performed in three time series after the administration of the compound. In the case of the von Frey test—after 30, 90, and 180 min; the cold plate test—after 35, 95, and 185 min; and the tail flick test—after 40, 100, and 190 min.
The mice were randomly divided into four experimental groups. One group received a vehicle treatment (10% DMSO/10%(2-Hydroxypropyl)-β-cyclodextrin/water for injection, i.p.), while the other three groups were administered with AR71 at doses of 5, 10, or 20 mg/kg of body weight (b.w.), i.p. Baseline measurements for all tests were conducted before the compounds were injected, and the results are presented as percentages of the maximal possible effect (% MPE). […] All data from behavioural tests were analysed using a one-way ANOVA with Bonferroni’s multiple comparison post hoc test. […]
Tail flick latency was measured on the dorsal part of the tail at two-thirds of its length by applying a focused beam of light (thermal stimulus). The time interval between the thermal stimulus’s onset and the tail’s withdrawal from the beam was recorded. […]

CCI-exposed mice [2] = test: CCI neuropathic pain model, all behavioural tests and observation; type: in vivo, mouse
Procedure: as §1
The mice were randomly divided into four experimental groups. One group received a vehicle treatment (10% DMSO/10%(2-Hydroxypropyl)-β-cyclodextrin/water for injection, i.p.), while the other three groups were administered with AR71 at doses of 5, 10, or 20 mg/kg of body weight (b.w.), i.p. Baseline measurements for all tests were conducted before the compounds were injected, and the results are presented as percentages of the maximal possible effect (% MPE). […] All data from behavioural tests were analysed using a one-way ANOVA with Bonferroni’s multiple comparison post hoc test.
Assessment of the analgesic activity of AR71 was performed using a mouse experimental model of chronic constriction injury of the sciatic nerve, by three tests including the von Frey test, the cold plate test, and the tail flick test. […]

SH-SY5Y cells = test: mitochondrial membrane potential (JC-10); type: cell-based, human; settings: 0.78 μM
Procedure: Neurotoxin-like rotenone induces oxidative stress inside cells that might influence mitochondrial membrane potential (MMP). Maintaining unaffected MMP is essential for neuroprotection. In our study, we tested the effect of AR71 on MMP in the presence and absence of rotenone.
Next, the effect of AR71 (0.78 μM) when co-treated with rotenone was tested; 1 μM carbonyl cyanide m-chlorophenylhydrazone (CCCP) was used as a positive control.
The MMP was measured by a commercially available kit (Sigma Aldrich, MAK159, for live cells) that utilises a cationic, lipophilic dye JC-10. It allows for ratiometric analysis of mitochondrial membrane potential, where a shift from orange (λEX/λEM: 540 nm/590 nm) to green fluorescence (λEX/λEM: 490 nm/525 nm) is indicative of compromised mitochondria. For this assay, the SH-SY5Y cells (1 × 10^4 cells/well) were seeded in a black-sided clear bottom 96-well plate (Thermo Scientific Nunclon^TM Delta Surface no. 137101, Denmark) in a complete culture medium. First, to choose the optimal concentration of rotenone in this assay, a dose–response effect of rotenone (0.05, 0.5, 5, 50 μM) was studied. Next, the cells were pre-treated with AR71 (0.78 μM) for 1 h before rotenone stimulation (50 μM) for another 3 h. […] The positive control was carbonyl cyanide m-chlorophenylhydrazone (CCCP; 1 μM)—uncoupling agent on the proton gradient. After incubation, 50 μL/well of the JC-10 dye loading solution was added to each well with cells. The plate was incubated for 45 min in the incubator. Then, 50 μL/well of Assay Buffer B was added to each well, and the fluorescence was monitored immediately. The red/green fluorescence intensity ratio was used to calculate the results.

[3] = metabolic stability in human liver microsomes; type: in vitro ADME
Procedure: The metabolic stability of AR71 was assessed in vitro using human liver microsomes (HLMs). […] After 120 min of incubation with HLMs, 85% of AR71 remained unchanged. However, during this time, six metabolites were formed (Figure S4a–d, Supplementary Materials). The metabolite M1 was formed in the highest amount (5.5%). The others were formed in amounts of 0.6% to 1.2%. Based on an analysis of their molar masses, and with the help of MetaSite 6.0.1, a type of metabolic transformation was proposed. The identified in vitro AR71 metabolic pathways and the most probable site of metabolism predicted by MetaSite 6.0.1 are shown in Table 1.
Metabolic stability was assessed in human liver microsomes (HLMs, Sigma-Aldrich, St. Louis, MO, USA), as previously described. After 120 min of incubation with HLMs, liquid chromatography–mass spectrometry (Waters ACQUITY TQD system with the TQ Detector, Waters, Milford, MA, USA) was used to identify the formed metabolites. MetaSite 6.0.1 software (Molecular Discovery Ltd., Hertfordshire, U.K.) was used to predict the most probable sites of metabolism in silico.

COc1cc(/C=C/C(=O)c2ccc(OCCCN3CCCCC3)cc2)cc(OC)c1OC [AR71, (E)-3-(3,4,5-trimethoxyphenyl)-1-(4-(3-(piperidin-1-yl)propoxy)phenyl)prop-2-en-1-one]
pKi (human H3R): 7.62 | effect in tail flick test vs vehicle (CCI-exposed mice [1]; 100 and 190 min (p < 0.001 and p < 0.01)): significant pain-relieving effects | effect in tail flick test vs vehicle (CCI-exposed mice [1]; 40 min post-injection, p < 0.05): significant analgesic effect | sedative, locomotor or gastrointestinal effects (CCI-exposed mice [2]; 5, 10, 20 mg/kg i.p.): no sedative, locomotor, or gastrointestinal effects | dose with the highest analgesic effects (CCI-exposed mice [2]; single i.p. injection, doses 5, 10, 20 mg/kg, day 14 after CCI): 20 mg/kg | effect on MMP of compound alone (SH-SY5Y cells): did not affect mitochondrial membrane potential | minimisation of loss of MMP compared with rotenone-treated cells (SH-SY5Y cells; 1 h pre-treatment, then rotenone 50 μM for 3 h): 20% | number of metabolites formed ([3]; 120 min incubation with HLMs): six | parent compound remaining unchanged ([3]; 120 min incubation with HLMs): 85% | parent compound remaining unchanged ([3]; 120 min incubation with HLMs, listed as AR-71): 85.40% | metabolic stability ([3]; HLMs): rather metabolically stable
